The values that follow come from patent US11332459B2 (TEIJIN PHARMA LIMITED, priority 2017, dated 2022).

The target in the experiment is T1, human TRPC6 (Homo sapiens, UniProt Q9Y210).
T1 construct: expressed in transfected cells
T1 sequence (Q9Y210 1-931): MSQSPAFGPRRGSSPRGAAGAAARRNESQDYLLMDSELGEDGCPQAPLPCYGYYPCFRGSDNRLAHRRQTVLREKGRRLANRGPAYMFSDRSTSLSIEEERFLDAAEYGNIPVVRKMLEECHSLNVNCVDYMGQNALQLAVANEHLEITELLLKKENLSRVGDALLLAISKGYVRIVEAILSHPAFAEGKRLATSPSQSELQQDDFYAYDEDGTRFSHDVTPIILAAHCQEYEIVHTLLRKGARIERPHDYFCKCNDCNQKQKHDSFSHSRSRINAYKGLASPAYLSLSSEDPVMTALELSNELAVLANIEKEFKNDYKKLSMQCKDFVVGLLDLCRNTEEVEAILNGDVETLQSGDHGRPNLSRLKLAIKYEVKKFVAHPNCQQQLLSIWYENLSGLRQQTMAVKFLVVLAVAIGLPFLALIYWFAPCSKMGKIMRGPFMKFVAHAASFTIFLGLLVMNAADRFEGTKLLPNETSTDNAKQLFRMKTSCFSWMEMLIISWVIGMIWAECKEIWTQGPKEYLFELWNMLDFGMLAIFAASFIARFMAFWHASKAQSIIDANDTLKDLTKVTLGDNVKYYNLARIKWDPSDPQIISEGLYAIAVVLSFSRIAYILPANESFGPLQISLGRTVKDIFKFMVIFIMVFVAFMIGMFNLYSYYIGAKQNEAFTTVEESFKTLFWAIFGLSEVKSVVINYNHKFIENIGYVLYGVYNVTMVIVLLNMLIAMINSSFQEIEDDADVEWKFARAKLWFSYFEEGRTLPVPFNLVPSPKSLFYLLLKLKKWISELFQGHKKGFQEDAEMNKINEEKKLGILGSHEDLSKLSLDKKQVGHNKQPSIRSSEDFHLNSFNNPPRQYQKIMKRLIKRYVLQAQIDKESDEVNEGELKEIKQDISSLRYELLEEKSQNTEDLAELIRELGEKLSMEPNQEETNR
The experiment can be described thus: TRPC6 calcium flux assay (FLIPR, OAG-stimulated calcium influx). The class given is cell-based. To be noted: HEK293 cells stably transfected with human TRPC6, read-out: hTRPC6 Potency. The method in brief:
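IC50 derived by plotting background-corrected peak fluorescence (180 s window, normalized to OAG-triggered signal vs buffer) against dose. Stable human TRPC6 HEK293 line was dye-loaded, exposed to compound 25 min, then challenged with 50 uM final OAG in 2 mM Ca2+ HEPES buffer pH 7.2, 0.5% DMSO.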
Background: Calcium assays in cells follow changes in intracellular calcium, usually with a dye or a luminescent sensor.

Structures can show the parent of a compound that is named as a salt. Bounds are passed on as bounds.

For the molecule `N#Cc1ccc(Cn2c(N3C[C@H]4C[C@@]4(CN)C3)nc3ccccc32)nc1` [Example 74, 6-((2-((1R,5S)-1-(aminomethyl)-3-azabicyclo[3.1.0]hexan-3-yl)-1H-benzo[d]imidazol-1-yl)methyl)nicotinonitrile hydrochloride], the IC50 was found to be 380 nM.
Then `N#Cc1ccc(Cn2c(N3C[C@@H]4C[C@]4(CN)C3)nc3ccccc32)nc1` [Example 75, 6-((2-((1S,5R)-1-(aminomethyl)-3-azabicyclo[3.1.0]hexan-3-yl)-1H-benzo[d]imidazol-1-yl)methyl)nicotinonitrile hydrochloride], with 81.4 nM; and `N#Cc1ccc(Cn2c(N3C[C@H]4CC[C@@H](N)[C@H]4C3)nc3ccccc32)nc1` [Example 76, 6-((2-((3aR,4R,6aS)-4-aminohexahydrocyclopenta[c]pyrrol-2(1H)-yl)-1H-benzo[d]imidazol-1-yl)methyl)nicotinonitrile hydrochloride], with 971 nM; and `N#Cc1ccc(Cn2c(N3C[C@@H]4CC[C@H](N)[C@@H]4C3)nc3ccccc32)nc1` [Example 77, 6-((2-((3aS,4S,6aR)-4-aminohexahydrocyclopenta[c]pyrrol-2(1H)-yl)-1H-benzo[d]imidazol-1-yl)methyl)nicotinonitrile hydrochloride], with 10.9 nM.
As for `N#Cc1ccc(Cn2c(N3C[C@H]4CC[C@H](N)[C@H]4C3)nc3ccccc32)nc1` [Example 78, 6-((2-((3aR,4S,6aS)-4-aminohexahydrocyclopenta[c]pyrrol-2(1H)-yl)-1H-benzo[d]imidazol-1-yl)methyl)nicotinonitrile hydrochloride], the IC50 stood at 70.7 nM.
Consider `N#Cc1ccc(Cn2c(N3C[C@@H]4CC[C@@H](N)[C@@H]4C3)nc3ccccc32)nc1` [Example 79, 6-((2-((3aS,4R,6aR)-4-aminohexahydrocyclopenta[c]pyrrol-2(1H)-yl)-1H-benzo[d]imidazol-1-yl)methyl)nicotinonitrile hydrochloride], for which the IC50 is 5.09 nM.
With `N#Cc1ccc(Cn2c(N3CC[C@H](CN)C3)nc3ccccc32)nc1` [Example 80, (R)-6-((2-(3-(aminomethyl)pyrrolidin-1-yl)-1H-benzo[d]imidazol-1-yl)methyl)nicotinonitrile hydrochloride] the figure was 79.3 nM; with `N#Cc1ccc(Cn2c(N3CC[C@@H](CN)C3)nc3ccccc32)nc1` [Example 81, (S)-6-((2-(3-(aminomethyl)pyrrolidin-1-yl)-1H-benzo[d]imidazol-1-yl)methyl)nicotinonitrile hydrochloride], 557 nM; with `N#Cc1ccc(Cn2c(N3CC[C@H](F)[C@H](N)C3)nc3cc(Cl)c(Cl)cc32)nc1` [Example 82, 6-((2-((3R,4S)-3-amino-4-fluoropiperidin-1-yl)-5,6-dichloro-1H-benzo[d]imidazol-1-yl)methyl)nicotinonitrile hydrochloride], 0.504 nM.
`N#Cc1ccc(Cn2c(N3CC[C@H](F)[C@H](N)C3)nc3cc(F)c(F)cc32)nc1` [Example 83, 6-((2-((3R,4S)-3-amino-4-fluoropiperidin-1-yl)-5,6-difluoro-1H-benzo[d]imidazol-1-yl)methyl)nicotinonitrile hydrochloride]: the IC50 worked out at 0.906 nM.
Regarding `N#Cc1ccc(Cn2c(N3CCC(F)(F)[C@H](N)C3)nc3cc(F)c(F)cc32)nc1` [Example 84, (R)-6-((2-(3-amino-4,4-difluoropiperidin-1-yl)-5,6-difluoro-1H-benzo[d]imidazol-1-yl)methyl)nicotinonitrile hydrochloride], the IC50 was 1.27 nM.
For `N[C@@H]1CN(c2nc3ccccc3n2Cc2ccc(Cl)cn2)CCC1(F)F` [Example 85, (R)-1-(1-((5-chloropyridin-2-yl)methyl)-1H-benzo[d]imidazol-2-yl)-4,4-difluoropiperidin-3-amine hydrochloride], the IC50 stood at 7.55 nM.
Take `N[C@@H]1CN(c2nc3ccccc3n2Cc2ccc(Cl)cn2)CC[C@@H]1F` [Example 86, (3R,4S)-1-(1-((5-chloropyridin-2-yl)methyl)-1H-benzo[d]imidazol-2-yl)-4-fluoropiperidin-3-amine hydrochloride]: the IC50 came out at 1.37 nM.
Then `N#Cc1ccc(Cn2c(N3CCC(F)(F)[C@H](N)C3)nc3c(F)cc(F)cc32)nc1` [Example 87, (R)-6-((2-(3-amino-4,4-difluoropiperidin-1-yl)-4,6-difluoro-1H-benzo[d]imidazol-1-yl)methyl)nicotinonitrile hydrochloride], with 0.931 nM.
Turning to `N#Cc1ccc(Cn2c(N3CCC(F)(F)[C@H](N)C3)nc3ccc(F)cc32)nc1` [Example 88, (R)-6-((2-(3-amino-4,4-difluoropiperidin-1-yl)-6-fluoro-1H-benzo[d]imidazol-1-yl)methyl)nicotinonitrile], the IC50 turned out to be 0.643 nM.
With `N#Cc1ccc(Cn2c(N3CCC(F)(F)[C@H](N)C3)nc3c(C(F)(F)F)cccc32)nc1` [Example 89, (R)-6-((2-(3-amino-4,4-difluoropiperidin-1-yl)-4-(trifluoromethyl)-1H-benzo[d]imidazol-1-yl)methyl)nicotinonitrile], the IC50 turned out to be 368 nM.
`N#Cc1ccc(Cn2c(N3CC[C@@H](F)[C@H](N)C3)nc3c(C(F)(F)F)cccc32)nc1` [Example 90, 6-((2-((3R,4R)-3-amino-4-fluoropiperidin-1-yl)-4-(trifluoromethyl)-1H-benzo[d]imidazol-1-yl)methyl)nicotinonitrile]: the IC50 is 68 nM.
Turning to `N#Cc1ccc(Cn2c(N3CC[C@H](F)[C@H](N)C3)nc3c(C(F)(F)F)cccc32)nc1` [Example 91, 6-((2-((3R,4S)-3-amino-4-fluoropiperidin-1-yl)-4-(trifluoromethyl)-1H-benzo[d]imidazol-1-yl)methyl)nicotinonitrile], the IC50 worked out at 32.9 nM.
With `N#Cc1ccc(Cn2c(N3CC[C@@H](F)[C@H](N)C3)nc3cc(Cl)cnc32)nc1` [Example 92, 6-((2-((3R,4R)-3-amino-4-fluoropiperidin-1-yl)-6-chloro-3H-imidazo[4,5-b]pyridin-3-yl)methyl)nicotinonitrile] the figure was 43.8 nM; with `N#Cc1ccc(Cn2c(N3CC[C@@H](F)[C@H](N)C3)nc3ncc(Cl)cc32)nc1` [Example 93, 6-((2-((3R,4R)-3-amino-4-fluoropiperidin-1-yl)-6-chloro-1H-imidazo[4,5-b]pyridin-1-yl)methyl)nicotinonitrile], 6.85 nM; with `CC(C)(C)NC(=O)c1ccc(Cn2c(N3CC[C@@H](F)[C@H](N)C3)nc3ncc(Cl)cc32)nc1` [Example 94, 6-((2-((3R,4R)-3-amino-4-fluoropiperidin-1-yl)-6-chloro-1H-imidazo[4,5-b]pyridin-1-yl)methyl)-N-(tert-butyl)nicotinamide], 615 nM.
In the case of `N#Cc1ccc(Cn2c(N3CC[C@@H](O)[C@H](N)C3)nc3ccccc32)nc1` [Example 95, 6-((2-((3R,4R)-3-amino-4-hydroxypiperidin-1-yl)-1H-benzo[d]imidazol-1-yl)methyl)nicotinonitrile], the IC50 was greater than 3750 nM.
With `N#Cc1ccc(Cn2c(N3CC[C@H](O)[C@@H](N)C3)nc3ccccc32)nc1` [Example 96, 6-((2-((3S,4S)-3-amino-4-hydroxypiperidin-1-yl)-1H-benzo[d]imidazol-1-yl)methyl)nicotinonitrile] the figure was 134 nM.
Take `N#Cc1ccc(Cn2c(N3CCC4(CNC4)C3)nc3ccccc32)nc1` [Example 97, 6-((2-(2,6-diazaspiro[3.4]octan-6-yl)-1H-benzo[d]imidazol-1-yl)methyl)nicotinonitrile]: the IC50 was greater than 3750 nM.
On to `N#Cc1ccc(Cn2c(N3C[C@@H]4OCCN[C@@H]4C3)nc3ccccc32)nc1` [Example 98, 6-((2-((4aR,7aS)-hexahydropyrrolo[3,4-b][1,4]oxazin-6(2H)-yl)-1H-benzo[d]imidazol-1-yl)methyl)nicotinonitrile hydrochloride], for which the IC50 is greater than 3750 nM.
In the case of `N#Cc1ccc(Cn2c(N3C[C@@H]4NCCO[C@@H]4C3)nc3ccccc32)nc1` [Example 99, 6-((2-((4aS,7aR)-hexahydropyrrolo[3,4-b][1,4]oxazin-6(2H)-yl)-1H-benzo[d]imidazol-1-yl)methyl)nicotinonitrile hydrochloride], the IC50 is greater than 3750 nM.
With `N#Cc1ccc(Cn2c(N3C[C@H]4NCCO[C@@H]4C3)nc3ccccc32)nc1` [Example 100, 6-((2-((4aR,7aR)-hexahydropyrrolo[3,4-b][1,4]oxazin-6(2H)-yl)-1H-benzo[d]imidazol-1-yl)methyl)nicotinonitrile] the figure was 60 nM.
